120 molecules from a melting point compilation (Tetko et al.) can be followed below.

Each structure is given as a SMILES string.

For `Clc1nc(-c2cccnc2)nc2sc(-c3ccccc3)cc12`, the melting point (as a rule, the temperature, or range, at which the solid turns liquid) was in the range of 179 to 182 °C. On to `COC(=O)Cc1c(C)n[nH]c1C`, for which the melting point lay in the range of 51 to 55 °C. `O=C(O)CN(C(=O)c1ccc(Br)o1)c1ccccc1` came in with a melting point of 129 to 131 °C. The same measure for `Nc1cncc(Br)c1Cl`: 96 to 98 °C; for `COC(=O)c1cc(Cl)c2cc(Cl)ccc2n1`: 157 to 159 °C. With `N#CCN1C(=O)c2ccccc2C1=O`, the melting point lay within 125 to 127 °C.

For `NS(=O)(=O)c1cc([N+](=O)[O-])c(Br)s1`, the melting point was 145 to 147 °C. The same measure for `NCc1cccc(NC(=O)c2cccc(F)c2)c1`: 100 to 102 °C; for `COc1cccc(OC)c1CC(=O)O`: 149 to 151 °C; for `NC(=S)c1ccccc1O`: 118 to 120 °C. Take `Cn1ncc(CN)c1N`: the melting point was 91 to 93 °C.

Consider `Cn1c(=O)c2c(ncn2CCCC(=O)O)n(C)c1=O`, for which the melting point was in the range of 167 to 169 °C.

For `O=C(O)C1CC(=O)N(Cc2cccc(C(F)(F)F)c2)C1` (stereo not given), the melting point fell in the range of 109 to 111 °C. Molecule `CN(C(=O)CC#N)C1CCCCC1` displayed a melting point of 88 to 90 °C.

On to `CC(C)(O)COc1ccc(N)cc1`, for which the melting point lay within 55 to 57 °C.

Take `O=C(O)C1CC(c2cc(F)ccc2F)=NO1` (stereo not given): the melting point was in the range of 135 to 137 °C. `O=C(O)c1ccn(-c2ccc(Cl)c(Cl)c2)n1`: the melting point fell in the range of 191 to 193 °C. `COc1ccc(C(N)c2ccccc2OC)cc1` (stereo not given) came in with a melting point of 58 to 60 °C. `Cn1c(S)nc2sc3c(c2c1=O)CCCC3` displayed a melting point of 304 to 306 °C. `N#CCc1ccc(C(=O)O)cc1` registered a melting point of 189 to 191 °C.

`CC(C)Oc1cncc(C(=O)O)c1`: the melting point was 172 to 174 °C. In the case of `Cc1n[nH]c(-c2ccc(Cl)c(Cl)c2)n1`, the melting point fell in the range of 200 to 202 °C. To `COc1cccc(Cn2c(N)nc3ccccc32)c1` belongs 145 to 147 °C; to `Nc1nc(-c2ccc(F)cc2)ns1`, 154 to 156 °C; to `Sc1nnnn1-c1ccc2c(c1)OCCO2`, 143 to 145 °C. The same measure for `O=C(CCl)NCCc1ccc2c(c1)OCCO2`: 72 to 76 °C; for `N#CCC(=O)N1CCS(=O)(=O)CC1`: 157 to 159 °C. On to `OCC#Cc1ccc(Oc2ccccc2)cc1`, for which the melting point was 42 to 44 °C. In turn, `Cn1c(N)nc2cc(F)ccc21` displayed a melting point of 152 to 154 °C. Take `Nc1nncc(-c2cc(Cl)ccc2Cl)n1`: the melting point is 175 to 177 °C. Molecule `COc1ccc(NC(=O)c2ccc(N)cc2)cc1` returned a melting point of 187 to 189 °C.

In turn, `CCCCCCOc1ccc(C(=O)O)cc1OC` returned a melting point of 122 to 124 °C. `CN(CC(N)=S)C(=O)OC(C)(C)C` showed a melting point of 149 to 151 °C.

`Cc1ccccc1NS(=O)(=O)c1ccc(C(=O)O)cc1`: the melting point was 256 to 258 °C.

For the molecule `O=C(O)c1nn(-c2cccc(Br)c2)c2c1CCCC2`, the melting point was in the range of 193 to 195 °C. `COc1ccc2c(O)ccnc2c1` displayed a melting point of 213 to 215 °C. The molecule `Cc1c(Cl)cc(C(=O)O)cc1S(=O)(=O)Cl` gave a melting point of 167 to 169 °C. Regarding `COc1cc(C(=O)O)c([N+](=O)[O-])cc1OCC1CCCO1` (stereo not given), the melting point lay in the range of 159 to 161 °C.

Consider `O=[N+]([O-])c1cc(I)ccc1Cl`, for which the melting point lay within 71 to 73 °C.

With `C=CCNc1ncc(C(=O)OC)s1`, the melting point is 109 to 111 °C.

`CCCn1c(C)c(C(=O)OCC)c2cc(O)ccc21` displayed a melting point of 179 to 181 °C. In the case of `NS(=O)(=O)Cc1ccc(C(=O)O)cc1`, the melting point lay within 275 to 277 °C. For `Nc1ccc(S(=O)(=O)Nc2ccc(Cl)cc2Cl)cc1`, the melting point lay within 162 to 164 °C. Molecule `N#CCNC(=O)c1ccc(Br)cc1` yielded a melting point of 170 to 172 °C. Molecule `NCC(O)c1cc(Cl)c2c(c1)OCCO2` (stereo not given) showed a melting point of 131 to 133 °C.

Consider `Cc1c([N+](=O)[O-])cccc1S(=O)(=O)Cl`, for which the melting point fell in the range of 47 to 49 °C. As to `Cc1oc2c(F)c(F)c(F)c(F)c2c1C(=O)O`, the melting point fell in the range of 206 to 208 °C. For the molecule `O=C(O)c1ccc(CS(=O)(=O)c2ccccc2)cc1`, the melting point is 297 to 299 °C. On to `COc1ccc(C(=O)O)cc1S(=O)(=O)N1CCOCC1`, for which the melting point fell in the range of 218 to 220 °C. To `Cc1nn(-c2ccccc2)c(Oc2ccc(F)cc2)c1C=O` belongs 105 to 107 °C; to `N#Cc1c(C(=O)O)cc(C2CC2)[nH]c1=S`, 258 to 260 °C. In turn, `O=c1cc(CCl)c2ccc(O)cc2o1` came in with a melting point of 135 to 137 °C. `N=C(N)NN=Cc1ccccc1`: the melting point was in the range of 179 to 181 °C.

Molecule `Cc1cc(O)c(C(=O)O)cc1S(=O)(=O)Cl` registered a melting point of 162 to 164 °C. In turn, `O=c1[nH]c(-c2ccc3c(c2)OCCO3)cs1` displayed a melting point of 229 to 231 °C. Molecule `O=C(O)CS(=O)(=O)CC(=O)Nc1ccc(Br)cc1` returned a melting point of 207 to 209 °C. As to `Nc1cc(C(F)(F)F)ccc1Oc1ccc(Br)cc1`, the melting point was in the range of 19 to 21 °C. On to `CS(=O)(=O)c1ccc(C(=O)O)o1`, for which the melting point was in the range of 173 to 175 °C.

With `Fc1ccc2nc(-c3ccccn3)[nH]c2c1`, the melting point was 159 to 161 °C.

With `Cc1cc2ncc(S(C)(=O)=O)c(N)n2n1`, the melting point fell in the range of 208 to 210 °C. Molecule `COc1ccc(C(=O)CO)cc1Cl` yielded a melting point of 136 to 138 °C.

`Clc1cc(SCc2ccccc2)ccn1` showed a melting point of 61 to 63 °C. Regarding `O=C(CBr)c1cccc(N2CCCC2=O)c1`, the melting point lay within 83 to 85 °C. Consider `O=C(O)CCNS(=O)(=O)c1ccc(Br)cc1`, for which the melting point was 161 to 163 °C.

Molecule `Oc1ccc(-c2ccc(F)cc2)nn1` had a melting point of 269 to 271 °C. To `CS(=O)(=O)CCc1ccc(N)cc1` belongs 93 to 95 °C. For the molecule `C#CCN1C(=O)C(=O)c2ccccc21`, the melting point lay within 153 to 155 °C. As to `C/C(=N\OCC(=O)O)c1ccc2c(c1)OCO2`, the melting point lay within 136 to 138 °C. With `Cc1n[nH]c(N)c1I`, the melting point lay in the range of 102 to 104 °C. The same measure for `CCN(C)c1ccc(C(C)=O)cc1`: 41 to 43 °C; for `ClCc1nn(-c2ccccc2)c2c1CCC2`: 83 to 85 °C; for `CC(=O)Nc1ccc(C(=O)CCl)c(F)c1`: 128 to 130 °C.

On to `NCc1ccn(-c2ccc(F)cc2)n1`, for which the melting point was in the range of 56 to 58 °C. As to `Nc1nc(Cl)ccc1F`, the melting point fell in the range of 84 to 86 °C.

For `Cc1cc(C=O)c(C)n1-c1ccc(F)c(F)c1F`, the melting point was 89 to 91 °C. To `N#Cc1ccc(S(=O)(=O)Cl)cn1` belongs 67 to 69 °C. Molecule `O=C(O)c1cnc2sc(Cc3ccccc3)cn2c1=O` returned a melting point of 197 to 199 °C. To `Nc1ccc2c(c1)COC2` belongs 89 to 91 °C; to `OCCN1CCN(c2ccc(CO)nn2)CC1`, 129 to 131 °C; to `OCc1cc(C23CC4CC(CC(C4)C2)C3)n[nH]1`, 159 to 161 °C. As to `Cn1cc(NC(=O)OCC(F)(F)F)ccc1=O`, the melting point was in the range of 208 to 210 °C. Regarding `CN1CCCCC/C1=N\S(=O)(=O)c1cccc(N)c1`, the melting point lay within 172 to 174 °C. Turning to `CCOc1ccc(-n2ncc(C(=O)O)c2C)nn1`, the melting point is 227 to 229 °C. The same measure for `C=CC(=O)Nc1cccc(Br)c1`: 122 to 124 °C. On to `CC(C)(C)Sc1ccc(C#N)nc1`, for which the melting point fell in the range of 60 to 62 °C. To `Sc1nnc(NC2CC2)s1` belongs 170 to 172 °C. For the molecule `Cc1occc1-c1nnc(S)n1-c1ccccc1`, the melting point is 234 to 236 °C. In the case of `O=C(c1ccc(Cl)cc1)c1cccnc1`, the melting point is 87 to 89 °C. On to `O=C(O)c1ccc(C(=O)Nc2ccccc2)cc1`, for which the melting point fell in the range of 309 to 311 °C.

Molecule `Cc1nn(C2CCOC2)cc1C(=O)O` (stereo not given) returned a melting point of 163 to 165 °C. `Nc1noc(-c2ccccc2)n1` registered a melting point of 164 to 166 °C. Turning to `Nc1cccnc1N1CCCC1`, the melting point was in the range of 78 to 80 °C. To `Cc1nc(NN)c2cc(-c3ccccc3)sc2n1` belongs 163 to 165 °C; to `Cc1nc(-c2c(C)c(C)nn(C)c2=O)sc1C(=O)O`, 239 to 241 °C. In turn, `O=S(=O)(Nc1ccc(F)c(F)c1)c1ccc(Cl)nc1` registered a melting point of 159 to 161 °C. As for `Nc1nc2cc3c(cc2s1)OC(F)(F)O3`, the melting point lay within 191 to 193 °C. The same measure for `CCOc1ccc(C(=O)O)cn1`: 184 to 186 °C; for `O=S(=O)(Cl)c1csc(-c2ccccc2)n1`: 86 to 88 °C; for `O=C(O)c1nc(-c2ccccc2)oc1-c1ccccc1`: 193 to 195 °C. In turn, `Nc1c(Cl)ncnc1NC1CC1` came in with a melting point of 139 to 141 °C. Molecule `CC(C)Cn1[nH]c(CC(=O)O)cc1=O` showed a melting point of 164 to 166 °C. The molecule `Nc1nnc(Cc2ccc(F)cc2)s1` registered a melting point of 170 to 172 °C.

In turn, `Cc1ccc(-n2nc(C)c(NC(=O)OCC(F)(F)F)c2C)cc1` yielded a melting point of 145 to 147 °C. The molecule `CNc1nc(S)nc2ccccc12` gave a melting point of 220 to 222 °C. `CN(C)c1ccc(C=O)cc1[N+](=O)[O-]` showed a melting point of 104 to 106 °C. The molecule `Cc1cnc2c(C)cnn2c1N` gave a melting point of 239 to 241 °C. In the case of `NC(CN1CCCC1)=NO`, the melting point was 142 to 144 °C. In turn, `CCCC(C)(NC(=O)OCc1ccccc1)C(=O)O` (stereo not given) registered a melting point of 103 to 105 °C. Take `COc1cc(C=O)cc(OC)c1OCC(N)=O`: the melting point was 165 to 167 °C. The molecule `c1ccc(NC2CCNC2)cc1` (stereo not given) showed a melting point of 77 to 79 °C.

Take `CN(C)C(C)(C(=O)O)c1ccc(Cl)cc1` (stereo not given): the melting point was in the range of 239 to 241 °C.

In turn, `CC(C)(C)NS(=O)(=O)c1cc(N)c(F)cc1F` gave a melting point of 109 to 111 °C.

In turn, `CN(C)C(=O)Cn1cnc(N)n1` displayed a melting point of 135 to 137 °C. The molecule `CCn1cc(C(=O)O)c(C(C)C)n1` registered a melting point of 122 to 124 °C.

In turn, `Cc1cc(C(=O)O)c(C)n1-c1ccccc1` returned a melting point of 213 to 215 °C. On to `O=C(O)c1nnn(-c2ccc(F)cc2)c1C1CC1`, for which the melting point lay within 173 to 175 °C. To `O=[N+]([O-])c1ccc(-c2noc(Cl)n2)cc1` belongs 118 to 120 °C; to `CN(C)c1ncnc(Cl)c1C=O`, 141 to 143 °C.

Take `NS(=O)(=O)c1ccc(OCCC(=O)O)cc1`: the melting point was in the range of 140 to 142 °C. As to `Cc1ccc(N)cc1N1CCOC1=O`, the melting point fell in the range of 130 to 132 °C.
